Series [1] relates to SH-SY5Y cells. As to the kind of experiment: Transwell co-culture assay, SH-SY5Y cell viability by MTT. The class given is cell-based. From the text:
In this and the following examples, human neuroblastoma cell line SH-SY5Y (a cell model of dopaminergic neurons for Parkinson's disease research) that was damaged by 6-hydroxydopamine (6-OHDA, i.e., 2,4,5-trihydroxyphenethylamine)-induced oxidative stress was used to assess the effects of GA on the homing ability of MSCs and the neuroprotective effects of GA pre-treated MSCs and the exosomes derived therefrom. SH-SY5Y cells were obtained from the American Type Culture Collection (ATCC; Manassas, Va., USA). The SH-SY5Y cells were cultured in a humidified incubator at 37° C. with 5% CO2. DMEM (Life Technologies, USA) supplemented with 10% FBS (Hyclone, Thermo Fisher Scientific, USA) and 1% penicillin-streptomycin (Gibco, Thermo Fisher Scientific, USA) was used for culturing of the SH-SY5Y cells.
To determine whether GA can promote MSCs to rescue nerve cell death, transwell co-culture assay was performed where WJMSCs (2×10^4 cells) pre-treated with 0, 20, 40, or 80 μM GA for 24 hours were placed in the upper chamber of a transwell insert, and SH-SY5Y cells (3×10^4 cells) treated with 100 μM 6-OHDA were seeded in the bottom well of the transwell plate. After co-culture of the cells at 37° C. for 24 hours, the SH-SY5Y cell viability was determined by MTT assay. […]

In series [2] the test system is SH-SY5Y cells. As to the kind of experiment: Western blotting of apoptosis-related, anti-apoptotic and OXPHOS proteins in 6-OHDA-stimulated SH-SY5Y cells. The class given is cell-based, human. To be noted: FIG. 5C. Here is the method:
To further investigate the molecular events associated with the anti-apoptotic effects of GA pre-treated MSC-derived exosomes, the expression of apoptosis-related and anti-apoptotic proteins in 6-OHDA-stimulated SH-SY5Y cells was measured using western blotting. The damaged SH-SY5Y cells were treated with exosomes isolated either from GA pre-treated WJMSCs (80 μM GA for 24 hours) or untreated WJMSCs.
Moreover, the expression of mitochondrial proteins involved in oxidative phosphorylation (OXPHOS), including ATP5A, UQCRC2, MTCO1, SDHB, and NDUFB8, was examined by western blotting.

Series [3] concerns SH-SY5Y cells. As to the kind of experiment: Autophagic flux in SH-SY5Y cells by LC3B immunofluorescence and western blotting. The class given is cell-based, human. Here is the method: SH-SY5Y cells under 6-OHDA stimulation were treated with exosomes isolated either from GA pre-treated WJMSCs (80 μM GA for 24 hours) or untreated WJMSCs. For immunofluorescence staining, the treated cells were fixed in 4% PFA, incubated with an anti-LC3B primary antibody followed by a fluorophore-conjugated secondary antibody, and stained with 4′,6-diamidino-2-phenylindole (DAPI). The SH-SY5Y cells were then visualized by a fluorescence microscope (Olympus).

For the compound `NCCc1cc(O)c(O)cc1O` [6-OHDA, 2,4,5-trihydroxyphenethylamine], in the series on SH-SY5Y cells [1] (100 μM 6-OHDA, MTT, FIG. 3A), the “SH-SY5Y cell viability, effect of 6-OHDA” value is listed as “decreased SH-SY5Y cell viability”. Further, the “expression of mitochondrial OXPHOS proteins (ATP5A, UQCRC2, MTCO1, SDHB, NDUFB8)” value in the series with SH-SY5Y cells [2] is “downregulated the expression of the OXPHOS proteins”. The “LC3 puncta (autophagosome formation) in SH-SY5Y cells” value with SH-SY5Y cells [3] (immunofluorescence, anti-LC3B, FIG. 6A) is listed as “abundant”. Also, the “autophagy-related protein expression (Beclin-1, LC3B, p62) in SH-SY5Y cells” value in the series on SH-SY5Y cells [3] (western blotting, FIG. 6B) was “increased Beclin-1 and LC3B expression but decreased p62 protein expression”.
`O=C(/C=C/c1ccc(/C=C/C(=O)Nc2ccc(C3=NCCN3)cc2)cc1)Nc1ccc(C2=NCCN2)cc1` [GW4869]: the “protective effect of the GA pre-treated WJMSCs on SH-SY5Y viability in the presence of GW4869” value in the series on SH-SY5Y cells [1] (co-culture assay with exosome generation inhibitor, FIG. 3B) is “suppressed”.

For the origin of these results see patent US20230145213A1, “Pre-conditioned mesenchymal stem cells and preparations and applications thereof” (BUDDHIST TZU CHI MEDICAL FOUNDATION, priority 2021, published 2023).
